25 molecules from US20150157739A1, “Imidazo[2,1]thiazol-3-one derivatives” (Hoffmann-La Roche Inc., priority 2012, published 2015) can be followed below.

Bounds are passed on as bounds.

The target in test [1] is T1, aggregated recombinant human-microtubule associated protein Tau (Homo sapiens, UniProt P10636).
T1 construct: Recombinant human-microtubule associated protein Tau purified from E. coli is aggregated at a concentration of 5 μM with Arachidonic Acid (100 μM) in Tris 10 mM pH8, 24 h at 37° C
Kind of test: Thiazin-red R displacement fluorescence assay on aggregated Tau. The test is classed as binding. The settings on record: displacement of Thiazin-red R from aggregated Tau; compound 0.3 nM to 10000 nM; 30 min room temperature; Ex 531 nm/Em 595 nm. As to the method: (§1) Assay for Determination of […] for Tau and A-Beta
(§2) Recombinant human-microtubule associated protein Tau purified from E. coli is aggregated at a concentration of 5 μM with Arachidonic Acid (100 μM) in Tris 10 mM pH8, 24 h at 37° C. Synthetic Aβ40 is aggregated at a concentration of 50 μM with Arachidonic Acid (100 μM) in Tris 10 mM pH8, for three days at 37° C., under shaking at 150 rpm.
(§3) A saturation analysis of Thiazin-red R to the aggregated proteins is done to determine the affinity (Kd) of the Thiazin-red R to the aggregated protein.
(§4) Thiazin-red R will be added at the concentration corresponding to the Kd to the respective aggregated protein binding site, to induce a fluorescent signal that can be inhibited by the addition of a displacer compound.
(§5) In parallel, auto fluorescence of the compound is measured together with the aggregated proteins, but without Thiazin-red R. As negative control, ligand and aggregated protein is used and as positive control, Thiazin-red R, reference compound with known activity and aggregated protein is used.
(§6) Assay is performed in Perkin Elmer OptiPlate 384, black, 45 ul assay volume, assay buffer is DPBS no CaCl2 no MgCl2 (GIBCO N. 14020). Tested compounds are diluted in DMSO and 2 μl is added to the assay ([…]). Assay is started by the addition of the aggregated protein (competitive condition). Plates are shortly shacked (1 min with Sterico variomag teleshake) and incubated for 30 min at room temperature. Measurement are done with En:Vision (Perkin Elmer), at Excitation 531 nm/Emission 595 nm.

Test [2] concerns the target T2, aggregated synthetic Aβ40 (Homo sapiens, UniProt P05067).
T2 construct: Synthetic Aβ40 is aggregated at a concentration of 50 μM
Description: Thiazin-red R displacement fluorescence assay on aggregated A-beta. As to conditions: displacement of Thiazin-red R from aggregated Aβ40; compound 0.3 nM to 10000 nM; 30 min room temperature; Ex 531 nm/Em 595 nm. It counts as binding. Here is the method: as §1, §2, §3, §4, §5, §6

T1 sequence (P10636 whole entry): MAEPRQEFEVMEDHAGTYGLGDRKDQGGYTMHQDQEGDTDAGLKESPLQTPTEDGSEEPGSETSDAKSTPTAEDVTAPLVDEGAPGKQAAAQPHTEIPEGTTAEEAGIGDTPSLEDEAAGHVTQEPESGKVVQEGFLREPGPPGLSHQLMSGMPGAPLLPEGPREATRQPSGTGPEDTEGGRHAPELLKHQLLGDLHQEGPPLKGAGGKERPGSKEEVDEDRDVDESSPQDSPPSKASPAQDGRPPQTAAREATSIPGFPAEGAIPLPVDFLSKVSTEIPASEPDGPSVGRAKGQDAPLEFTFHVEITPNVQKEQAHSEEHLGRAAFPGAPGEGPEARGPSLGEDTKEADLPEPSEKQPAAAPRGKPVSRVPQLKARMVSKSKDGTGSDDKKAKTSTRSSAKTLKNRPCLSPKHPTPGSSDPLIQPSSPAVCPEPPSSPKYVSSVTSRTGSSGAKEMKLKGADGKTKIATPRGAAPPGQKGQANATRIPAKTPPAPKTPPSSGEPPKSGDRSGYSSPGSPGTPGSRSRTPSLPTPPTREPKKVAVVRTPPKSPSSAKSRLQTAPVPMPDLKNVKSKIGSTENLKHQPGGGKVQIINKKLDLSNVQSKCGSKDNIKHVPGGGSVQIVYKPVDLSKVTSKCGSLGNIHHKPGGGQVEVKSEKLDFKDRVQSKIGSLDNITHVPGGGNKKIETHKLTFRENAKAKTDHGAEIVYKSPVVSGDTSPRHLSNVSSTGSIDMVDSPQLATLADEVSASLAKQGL
T2 sequence (P05067 672-711 limits assumed): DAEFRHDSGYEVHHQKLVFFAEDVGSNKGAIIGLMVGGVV

In the case of `COc1cc(/C=c2\sc3nc(-c4ccccc4)cn3c2=O)cc(F)c1O` [Example 43, 2-[1-(3-fluoro-4-hydroxy-5-methoxy-phenyl)-meth-(Z)-ylidene]-6-phenyl-imidazo[2,1-b]thiazol-3-one], the half-inhibitory concentration (IC50) (as a rule, the concentration needed to halve the response being measured) in test [1] came to 51 nM; in test [2], 2320 nM.

`COc1cc(/C=c2\sc3nc(-c4cccc(C#N)c4)cn3c2=O)cc(Cl)c1O` [Example 44, 3-{2-[1-(3-Chloro-4-hydroxy-5-methoxy-phenyl)-meth-(Z)-ylidene]-3-oxo-2,3-dihydro-imidazo[2,1-b]thiazol-6-yl}-benzonitrile]: the 50% inhibitory concentration (IC50) in test [1] came to 6 nM; in test [2] it was 24000 nM.

Turning to `COc1cc(/C=c2\sc3nc(-c4cccc(C#N)c4)cn3c2=O)cc(Br)c1O` [Example 45, 3-{2-[1-(3-Bromo-4-hydroxy-5-methoxy-phenyl)-meth-(Z)-ylidene]-3-oxo-2,3-dihydro-imidazo[2,1-b]thiazol-6-yl}-benzonitrile], the concentration for half-maximal inhibition (IC50) in test [1] is 25 nM; in test [2] it was greater than 10000 nM.

Take `COc1cc(/C=c2\sc3nc(-c4ccc(F)c(C(F)(F)F)c4)cn3c2=O)cc(Br)c1O` [Example 46, 2-[1-(3-bromo-4-hydroxy-5-methoxy-phenyl)-meth-(Z)-ylidene]-6-(4-fluoro-3-(trifluoromethyl)-phenyl)-imidazo[2,1-b]thiazol-3-one]: the 50% inhibitory concentration (IC50) in test [1] was found to be 28 nM; in test [2] it was 5910 nM.

Turning to `COc1cccc(-c2cn3c(=O)/c(=C/c4cc(F)c(O)c(OC)c4)sc3n2)c1` [Example 47, 2-[1-(3-Fluoro-4-hydroxy-5-methoxy-phenyl)-meth-(Z)-ylidene]-6-(3-methoxy-phenyl)-imidazo[2,1-b]thiazol-3-one], the IC50 in test [1] amounted to 17 nM; in test [2] it was 540 nM.

Turning to `COc1cccc(-c2cn3c(=O)/c(=C/c4cc(F)c(O)c(OC)c4)sc3n2)n1` [Example 48, 2-[1-(3-Fluoro-4-hydroxy-5-methoxy-phenyl)-meth-(Z)-ylidene]-6-(6-methoxy-pyridin-2-yl)-imidazo[2,1-b]thiazol-3-one], the IC50 in test [1] turned out to be 20 nM; in test [2], 1790 nM.

Regarding `COc1cc(/C=c2\sc3nc(-c4cc(F)cc(F)c4)cn3c2=O)cc(Cl)c1O` [Example 49, 2-[1-(3-Chloro-4-hydroxy-5-methoxy-phenyl)-meth-(Z)-ylidene]-6-(3,5-difluoro-phenyl)-imidazo[2,1-b]thiazol-3-one], the half-maximal inhibitory concentration (IC50) in test [1] turned out to be 16 nM; in test [2], 1370 nM.

In the case of `COc1cc(/C=c2\sc3nc(-c4cccc(C#N)c4)cn3c2=O)cc(OC(C)C)c1O` [Example 51, 3-{2-[1-(4-Hydroxy-3-methoxy-5-isopropoxyphenyl)-meth-(Z)-ylidene]-3-oxo-2,3-dihydro-imidazo[2,1-b]thiazol-6-yl}-benzonitrile], the half-maximal inhibitory concentration (IC50) was 275 nM in test [1] and greater than 10000 nM in test [2].

Consider `COc1cc(/C=c2\sc3nc(-c4cccc(C)c4)cn3c2=O)cc(Cl)c1O` [Example 52, 2-[1-(3-Chloro-4-hydroxy-5-methoxy-phenyl)-meth-(Z)-ylidene]-6-m-tolyl-imidazo[2,1-b]thiazol-3-one], for which the IC50 came out at 7 nM in test [1] and 1020 nM in test [2].

On to `COc1cc(/C=c2\sc3nc(-c4ccccc4F)cn3c2=O)cc(Cl)c1O` [Example 53, 2-[1-(3-Chloro-4-hydroxy-5-methoxy-phenyl)-meth-(Z)-ylidene]-6-(2-fluoro-phenyl)-imidazo[2,1-b]thiazol-3-one], for which the figures for the IC50 in test [1] and in test [2] were 16 nM and 5650 nM, respectively.

As to `CCc1cccc(-c2cn3c(=O)/c(=C/c4cc(Cl)c(O)c(OC)c4)sc3n2)c1` [Example 54, 2-[1-(3-Chloro-4-hydroxy-5-methoxy-phenyl)-meth-(Z)-ylidene]-6-(3-ethyl-phenyl)-imidazo[2,1-b]thiazol-3-one], the half-maximal inhibitory concentration (IC50) worked out at 25 nM in test [1] and 653 nM in test [2].

Regarding `COc1cc(/C=c2\sc3nc(-c4cccc(F)c4)cn3c2=O)cc(Cl)c1O` [Example 57, 2-[1-(3-Chloro-4-hydroxy-5-methoxy-phenyl)-meth-(Z)-ylidene]-6-(3-fluoro-phenyl)-imidazo[2,1-b]thiazol-3-one], the half-maximal inhibitory concentration (IC50) was 6 nM in test [1] and 3320 nM in test [2].

In the case of `COc1cc(/C=c2\sc3nc(-c4cccc(F)c4)cn3c2=O)cc(F)c1O` [Example 58, 2-[1-(3-Fluoro-4-hydroxy-5-methoxy-phenyl)-meth-(Z)-ylidene]-6-(3-fluoro-phenyl)-imidazo[2,1-b]thiazol-3-one], the IC50 was 19 nM in test [1] and 752 nM in test [2].

As to `COc1cc(/C=c2\sc3nc(-c4cccc(F)c4)cn3c2=O)cc(OC)c1O` [Example 59, 2-[1-(4-Hydroxy-3,5-dimethoxy-phenyl)-meth-(Z)-ylidene]-6-(3-fluoro-phenyl)-imidazo[2,1-b]thiazol-3-one], the figures for the IC50 in test [1] and in test [2] were 2 nM and 50 nM, respectively.

As for `COc1cc(/C=c2\sc3nc(-c4ccccc4)cn3c2=O)cc(Cl)c1O` [Example 60, 2-[1-(3-Chloro-4-hydroxy-5-methoxy-phenyl)-meth-(Z)-ylidene]-6-phenyl-imidazo[2,1-b]thiazol-3-one], the concentration for half-maximal inhibition (IC50) in test [1] came to 25 nM; in test [2], 851 nM.

For the molecule `COc1cccc(-c2cn3c(=O)/c(=C/c4cc(Cl)c(O)c(OC)c4)sc3n2)c1` [Example 61, 2-[1-(3-Chloro-4-hydroxy-5-methoxy-phenyl)-meth-(Z)-ylidene]-6-(3-methoxy-phenyl)-imidazo[2,1-b]thiazol-3-one], the IC50 stood at 4 nM in test [1] and 395 nM in test [2].

`COc1cc(/C=c2\sc3nc(-c4cccc(OC(F)F)c4)cn3c2=O)cc(Cl)c1O` [Example 62, 2-[1-(3-Chloro-4-hydroxy-5-methoxy-phenyl)-meth-(Z)-ylidene]-6-(3-(difluoromethoxy)-phenyl)-imidazo[2,1-b]thiazol-3-one]: the IC50 in test [1] was 6 nM; in test [2] it was 4160 nM.

In the case of `COc1cc(/C=c2\sc3nc(-c4cc(C)nc(C)c4)cn3c2=O)cc(Cl)c1O` [Example 63, 2-[1-(3-Chloro-4-hydroxy-5-methoxy-phenyl)-meth-(Z)-ylidene]-6-(2,6-dimethyl-pyridin-4-yl)-imidazo[2,1-b]thiazol-3-one], the figures for the IC50 in test [1] and in test [2] were 13 nM and 418 nM, respectively.

As for `COc1cc(/C=c2\sc3nc(-c4cc(C)nc(C)c4)cn3c2=O)cc(F)c1O` [Example 64, 2-[1-(3-Fluoro-4-hydroxy-5-methoxy-phenyl)-meth-(Z)-ylidene]-6-(2,6-dimethyl-pyridin-4-yl)-imidazo[2,1-b]thiazol-3-one], the figures for the 50% inhibitory concentration (IC50) in test [1] and in test [2] were 32 nM and 406 nM, respectively.

Take `COc1cc(/C=c2\sc3nc(-c4cc(C)nc(C)c4)cn3c2=O)cc(Br)c1O` [Example 65, 2-[1-(3-Bromo-4-hydroxy-5-methoxy-phenyl)-meth-(Z)-ylidene]-6-(2,6-dimethyl-pyridin-4-yl)-imidazo[2,1-b]thiazol-3-one]: the values for the IC50 in test [1] and in test [2] were 7 nM and 304 nM, respectively.

`COc1cc(/C=c2\sc3nc(-c4cccc(CCl)c4)cn3c2=O)cc(Cl)c1O` [Example 67, 2-[1-(3-Chloro-4-hydroxy-5-methoxy-phenyl)-meth-(Z)-ylidene]-6-(3-(chloromethyl)phenyl)-imidazo[2,1-b]thiazol-3-one]: the IC50 in test [1] was determined as 0.8 nM; in test [2] it was 9 nM.

For the molecule `COc1cc(/C=c2\sc3nc(-c4ccncc4)cn3c2=O)cc(Cl)c1O` [Example 68, 2-[1-(3-Chloro-4-hydroxy-5-methoxy-phenyl)-meth-(Z)-ylidene]-6-(pyridin-4-yl)-imidazo[2,1-b]thiazol-3-one], the values for the 50% inhibitory concentration (IC50) in test [1] and in test [2] were 3 nM and 300 nM, respectively.

Take `COc1cc(/C=c2\sc3nc(-c4ccncc4)cn3c2=O)cc(F)c1O` [Example 69, 2-[1-(3-Fluoro-4-hydroxy-5-methoxy-phenyl)-meth-(Z)-ylidene]-6-(pyridin-4-yl)-imidazo[2,1-b]thiazol-3-one]: the 50% inhibitory concentration (IC50) in test [1] came to 20 nM; in test [2], 620 nM.

On to `COc1cc(/C=c2\sc3nc(-c4ccncc4)cn3c2=O)cc(Br)c1O` [Example 70, 2-[1-(3-Bromo-4-hydroxy-5-methoxy-phenyl)-meth-(Z)-ylidene]-6-(pyridin-4-yl)-imidazo[2,1-b]thiazol-3-one], for which the 50% inhibitory concentration (IC50) in test [1] is 1.3 nM; in test [2] it was 103 nM.

`COc1cc(/C=c2\sc3nc(-c4cccnc4)cn3c2=O)cc(F)c1O` [Example 71, 2-[1-(3-Fluoro-4-hydroxy-5-methoxy-phenyl)-meth-(Z)-ylidene]-6-(pyridin-3-yl)-imidazo[2,1-b]thiazol-3-one]: the IC50 in test [1] is 20 nM; in test [2], 238 nM.
